Source: patent publication US20250065246A1, “SOLVENT COMPOSITION FOR NATURAL MATERIAL EXTRACTION” (GS CALTEX CORPORATION, priority 2018, published 2025)

Tests used:
A. niger = assay: Evaluation of antibacterial property, minimum inhibitory concentration; assay type: cell-based
Method: (§1) To evaluate an antibacterial property of the solvent compositions for extracting a natural material in examples 2 and 3, and comparative examples 3 and 4, minimum inhibitory concentration (MIC; %) of a total of five microorganisms was measured. A lower minimum inhibitory concentration (%) may denote a more excellent antibacterial property.

C. albicans = assay: as above; assay type: cell-based
Method: as §1

E. coli = assay: as above; assay type: cell-based
Method: as §1

P. aeruginosa = assay: as above; assay type: cell-based
Method: as §1

S. aureus = assay: as above; assay type: cell-based
Method: as §1

skin = assay: Evaluation of skin irritation, patch test (PCPC Safety Evaluation Guidelines, ICDRG standard); assay type: in vivo, human; conditions: patch test on 32 people, 30 wt %
Method: To evaluate skin irritation caused by solvent compositions for extracting a natural material in example 1 and comparative examples 1, 2 and 3, a patch test was conducted on a total of 32 people. The solvent compositions for extracting a natural material in example 1 and comparative examples 1, 2 and 3 were all at a concentration of 30 wt %, and the patch test was performed under the PCPC Safety Evaluation Guidelines and the ICDRG standard.

Row | Compound | A. niger (MIC %) (A. niger) [%] | C. albicans (MIC %) (C. albicans) [%] | E. coli (MIC %) (E. coli) [%] | P. aeruginosa (MIC %) (P. aeruginosa) [%] | S. aureus (MIC %) (S. aureus) [%] | Cases with skin irritation (skin) | Skin irritation category under ICDRG standard (skin) | Skin irritation index 30 minutes (skin) | Skin irritation index 24 hours (skin) | Skin irritation index 48 hours (skin) | Cases with skin irritation (skin; listed as comparative example 3)
1 | OCCCO [Comparative example 4, 1,3-propanediol] | 25 | 25 | 22 | 12.5 | 25 |  |  |  |  |  | 
2 | CC(O)CCO (centres unmarked) [Comparative example 3, 1,3-butanediol] | 12.5 | 12.5 | 17.5 | 12.5 | 25 | 2 | minor skin irritation | 0.5 | 0.0 | 0.0 | two
3 | CC(O)C(C)O (centres unmarked) [compound 1, 2,3-butanediol] |  |  |  |  |  | 0 | no skin irritation | 0.0 | 0.0 | 0.0 | 
4 | CC(O)C(C)O (single isomer, unassigned) [Example 3, meso-2,3-butanediol] | 12.5 | 12.5 | 12.5 | 6.25 | 25 |  |  |  |  |  | 
5 | CC(O)C(C)O (centres unmarked) [Example 1, 2,3-butanediol] |  |  |  |  |  | 0 | no skin irritation | 0.0 | 0.0 | 0.0 | 
6 | OCCCO [Comparative example 2, 1,3-propanediol] |  |  |  |  |  | 0 | no skin irritation | 0.0 | 0.0 | 0.0 | 
7 | CC(O)C(C)O (single isomer, unassigned) [Example 2, levo-2,3-butanediol] | 12.5 | 12.5 | 15 | 10 | 25 |  |  |  |  |  | 
